How the values were obtained:
[1] = molecular target: T1, Metallo-beta-lactamase VIM-2 [21-266] (Klebsiella pneumoniae, UniProt Q3Y6Q3); assay: Enzyme Inhibition Assay
T1 construct: 21-266
Procedure: (§1) Freshly prepared Zn2-NDM-1 (50 nM) or Zn2-VIM-2 were first incubated with various concentrations of Bi(III) compounds for 1 h at 25° C. The assay was performed in a 1 cm quartz cuvette using the kinetic mode of Varian Cary 50 UV-visible spectrophotometer at 25° C. The final assay buffer contains 50 mM HEPES/Na pH 7.0, 100 mM NaCl and 100 μM MER. The decrease in absorbance at 300 nm due to ring-opening of MER was monitored every second for a duration of 10 mins until the reaction was completed. The initial rate were extracted and calculated from each reaction curves.

[2] = molecular target: T2, Metallo-beta-lactamase type 2 [29-270] (Klebsiella pneumoniae, UniProt C7C422); assay: Enzyme Inhibition Assay
T2 construct: 29-270
Procedure: as §1

T2 sequence (C7C422 29-270): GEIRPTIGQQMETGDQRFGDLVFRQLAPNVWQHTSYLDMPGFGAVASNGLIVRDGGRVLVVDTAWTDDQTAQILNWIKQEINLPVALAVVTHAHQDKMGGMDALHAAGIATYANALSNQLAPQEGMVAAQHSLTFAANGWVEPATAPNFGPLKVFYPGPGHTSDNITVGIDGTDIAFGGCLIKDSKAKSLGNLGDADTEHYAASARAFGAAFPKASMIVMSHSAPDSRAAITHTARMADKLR

Compound | IC50 [1] | IC50 [2]
C[C@H](CS)C(=O)N1CCC[C@H]1C(=O)O [US10624871, Compound 15] | 6.17 µM | 
O=C(O)C[C@@](O)(CC(O)O)C(=O)O [US10624871, Compound 10] | 44.5 µM | 5.83 µM
[Bi+3] [US10624871, Compound Bi(NO3)3] | 2.45 µM | 1.89 µM
CC(=O)N[C@@H](CS)C(=O)O [US10624871, Compound 21] |  | 17.7 µM

— BindingDB's records for patent US10624871 (The University of Hong Kong, 2020)
